Legend:
MCF7 = assay: Cytotoxicity against human MCF7 cells assessed as cell viability after 48 hrs by MTT assay; type: functional, cell-based; settings: MCF7, 48 h
HEK293 = assay: Cytotoxicity against HEK293 cells assessed as cell viability after 48 hrs by MTT assay; type: cell-based; settings: Homo sapiens, HEK293, 48 h
DU-145 = assay: Cytotoxicity against human DU145 cells assessed as cell viability after 48 hrs by MTT assay; type: functional, cell-based; settings: DU-145, 48 h
HeLa = assay: Cytotoxicity against human HeLa cells assessed as cell viability after 48 hrs by MTT assay; type: functional, cell-based
B16 = assay: Cytotoxicity against mouse B16 cells assessed as cell viability after 48 hrs by MTT assay; type: functional, cell-based; settings: B16, 48 h
A549 = assay: Cytotoxicity against human A549 cells assessed as cell viability after 48 hrs by MTT assay; type: functional, cell-based; settings: A549, 48 h

Question: For CC1(C)CCCC23C=C[C@](C)(CC[C@@]12C)OO3, which IC50 (MCF7) is on record?
Answer: Its IC50 is 129 µM.

Question: What about the IC50 (HEK293) of the same molecule?
Answer: Its IC50 is 480 µM.

Question: What about the IC50 (DU-145) of the same molecule?
Answer: Its IC50 is 114 µM.

Question: And the IC50 (HeLa)?
Answer: The IC50 was 122 µM.

Question: What about the IC50 (B16) of the same molecule?
Answer: The IC50 was 343 µM.

Question: What about the IC50 (A549) of the same molecule?
Answer: Its IC50 is 94.8 µM.

Question: What does the source list for C=C1CC[C@@H](C(C)C)[C@]12CC=C(C=O)CC2?
Answer: IC50 (MCF7): 210 µM; IC50 (HEK293): 550 µM; IC50 (DU-145): 165 µM; IC50 (HeLa): 269 µM; IC50 (B16): 428 µM; IC50 (A549): 170 µM

Question: C=C1CCC[C@]2(C)CCC(C=O)=CC[C@@]12C was tested. Which IC50 (MCF7) did it give?
Answer: The IC50 was 319 µM.

Question: What about the IC50 (HEK293) of the same molecule?
Answer: The IC50 was 734 µM.

Question: What about the IC50 (DU-145) of the same molecule?
Answer: Its IC50 is 152 µM.

Question: What about the IC50 (HeLa) of the same molecule?
Answer: The IC50 was 190 µM.

Question: What about the IC50 (B16) of the same molecule?
Answer: The IC50 was 230 µM.

Question: What about the IC50 (A549) of the same molecule?
Answer: Its IC50 is 145 µM.

Question: Which results are given for CC1(C)CCCC2=CC=C(C=O)CC[C@]21C?
Answer: IC50 (MCF7): 166 µM; IC50 (HEK293): 696 µM; IC50 (DU-145): 191 µM; IC50 (HeLa): 163 µM; IC50 (B16): 145 µM; IC50 (A549): 138 µM

Question: Which results are given for CC1(C)CCC[C@]1(C)c1ccc(C=O)cc1?
Answer: IC50 (MCF7): 202 µM; IC50 (HEK293): 771 µM; IC50 (DU-145): 260 µM; IC50 (HeLa): 252 µM; IC50 (B16): 257 µM; IC50 (A549): 216 µM

Question: What does the source list for C#CC1=CC[C@@]2(C)C(=C)CCC[C@]2(C)CC1?
Answer: IC50 (MCF7): 575 µM; IC50 (HEK293): 524 µM; IC50 (DU-145): 386 µM; IC50 (HeLa): 158 µM; IC50 (B16): 507 µM; IC50 (A549): 148 µM

Question: How did the IC50 (MCF7) turn out when C#CC1=CC[C@]2(CC1)C(=C)CC[C@H]2C(C)C was run?
Answer: The IC50 was 135 µM.

Question: What about the IC50 (HEK293) of the same molecule?
Answer: The IC50 was 740 µM.

Question: And the IC50 (DU-145)?
Answer: The IC50 was 121 µM.

Question: And the IC50 (HeLa)?
Answer: Its IC50 is 97.6 µM.

Question: And the IC50 (B16)?
Answer: The IC50 was 123 µM.

Question: What about the IC50 (A549) of the same molecule?
Answer: The IC50 was 103 µM.

Question: For C=C1CCC[C@]2(C)CCC(c3cn(-c4ccc(OC)cc4)nn3)=CC[C@@]12C, which IC50 (MCF7) is on record?
Answer: Its IC50 is 118 µM.

Question: What about the IC50 (HEK293) of the same molecule?
Answer: The IC50 was 410 µM.

Question: What about the IC50 (DU-145) of the same molecule?
Answer: The IC50 was 58.9 µM.

Question: What about the IC50 (HeLa) of the same molecule?
Answer: Its IC50 is 43.6 µM.

Question: And the IC50 (B16)?
Answer: Its IC50 is 209 µM.

Question: What about the IC50 (A549) of the same molecule?
Answer: Its IC50 is 34.6 µM.

Question: Which results are given for C=C1CCC[C@]2(C)CCC(c3cn(-c4ccc(C(C)=O)cc4)nn3)=CC[C@@]12C?
Answer: IC50 (MCF7): 65.4 µM; IC50 (HEK293): 520 µM; IC50 (DU-145): 51.7 µM; IC50 (HeLa): 15.1 µM; IC50 (B16): 61 µM; IC50 (A549): 46.4 µM

Question: Which results are given for C=C1CCC[C@]2(C)CCC(c3cn(-c4cccc([N+](=O)[O-])c4)nn3)=CC[C@@]12C?
Answer: IC50 (MCF7): 40.3 µM; IC50 (HEK293): 699 µM; IC50 (DU-145): 62.5 µM; IC50 (HeLa): 31.9 µM; IC50 (B16): 31.7 µM; IC50 (A549): 24.7 µM

Question: What does the source list for C=C1CCC[C@]2(C)CCC(c3cn(-c4ccc(I)cc4)nn3)=CC[C@@]12C?
Answer: IC50 (MCF7): 162 µM; IC50 (HEK293): 215 µM; IC50 (DU-145): 145 µM; IC50 (HeLa): 144 µM; IC50 (B16): 144 µM; IC50 (A549): 137 µM

Question: How did the IC50 (MCF7) turn out when C=C1CCC[C@]2(C)CCC(c3cn(-c4ccccc4C(C)=O)nn3)=CC[C@@]12C was run?
Answer: The IC50 was 29.9 µM.

Question: And the IC50 (HEK293)?
Answer: The IC50 was 524 µM.

Question: What about the IC50 (DU-145) of the same molecule?
Answer: The IC50 was 48.5 µM.

Question: What about the IC50 (HeLa) of the same molecule?
Answer: The IC50 was 55.7 µM.

Question: And the IC50 (B16)?
Answer: Its IC50 is 42.2 µM.

Question: What about the IC50 (A549) of the same molecule?
Answer: Its IC50 is 37.6 µM.

Question: Which IC50 (MCF7) does the source give for C=C1CCC[C@]2(C)CCC(c3cn(CC(=O)Nc4ccc(C)cc4)nn3)=CC[C@@]12C here?
Answer: Its IC50 is 80.1 µM.

Question: What about the IC50 (HEK293) of the same molecule?
Answer: Its IC50 is 622 µM.

Question: What about the IC50 (DU-145) of the same molecule?
Answer: Its IC50 is 254 µM.

Question: What about the IC50 (HeLa) of the same molecule?
Answer: The IC50 was 131 µM.

Question: What about the IC50 (B16) of the same molecule?
Answer: The IC50 was 210 µM.

Question: And the IC50 (A549)?
Answer: Its IC50 is 270 µM.

Question: Which IC50 (MCF7) does the source give for C=C1CCC[C@]2(C)CCC(c3cn(-c4cccc(OC)c4)nn3)=CC[C@@]12C here?
Answer: The IC50 was 56.2 µM.

Question: What about the IC50 (HEK293) of the same molecule?
Answer: The IC50 was 734 µM.

Question: What about the IC50 (DU-145) of the same molecule?
Answer: The IC50 was 38.9 µM.

Question: And the IC50 (HeLa)?
Answer: The IC50 was 27.9 µM.

Question: What about the IC50 (B16) of the same molecule?
Answer: The IC50 was 34.6 µM.

Question: And the IC50 (A549)?
Answer: Its IC50 is 11.2 µM.

Question: C=C1CCC[C@]2(C)CCC(c3cn(-c4ccc(Cl)cc4)nn3)=CC[C@@]12C was tested. Which IC50 (MCF7) did it give?
Answer: Its IC50 is 35.1 µM.

Question: What about the IC50 (HEK293) of the same molecule?
Answer: The IC50 was 609 µM.

Question: And the IC50 (DU-145)?
Answer: The IC50 was 26 µM.

Question: What about the IC50 (HeLa) of the same molecule?
Answer: Its IC50 is 18.8 µM.

Question: And the IC50 (B16)?
Answer: The IC50 was 27.2 µM.

Question: What about the IC50 (A549) of the same molecule?
Answer: The IC50 was 20.1 µM.

Question: Which IC50 (MCF7) does the source give for C=C1CCC[C@]2(C)CCC(c3cn(-c4ccc(C)cc4)nn3)=CC[C@@]12C here?
Answer: The IC50 was 54.9 µM.

Question: And the IC50 (HEK293)?
Answer: Its IC50 is 524 µM.

Question: And the IC50 (DU-145)?
Answer: The IC50 was 132 µM.

Question: And the IC50 (HeLa)?
Answer: Its IC50 is 69.1 µM.

Question: What about the IC50 (B16) of the same molecule?
Answer: The IC50 was 57.6 µM.

Question: What about the IC50 (A549) of the same molecule?
Answer: The IC50 was 58.8 µM.

Question: With C=C1CCC[C@]2(C)CCC(c3cn(CC(=O)Nc4ccccc4)nn3)=CC[C@@]12C as the molecule, how does the IC50 (MCF7) read?
Answer: Its IC50 is 148 µM.

Question: And the IC50 (HEK293)?
Answer: Its IC50 is 491 µM.

Question: And the IC50 (DU-145)?
Answer: Its IC50 is 146 µM.

Question: What about the IC50 (HeLa) of the same molecule?
Answer: Its IC50 is 62.9 µM.

Question: What about the IC50 (B16) of the same molecule?
Answer: Its IC50 is 148 µM.

Question: What about the IC50 (A549) of the same molecule?
Answer: The IC50 was 72.2 µM.

Question: Which IC50 (MCF7) does the source give for C=C1CCC[C@]2(C)CCC(c3cn(-c4cc(OC)c(OC)cc4OC)nn3)=CC[C@@]12C here?
Answer: The IC50 was 41.1 µM.

Question: And the IC50 (HEK293)?
Answer: The IC50 was 334 µM.

Question: What about the IC50 (DU-145) of the same molecule?
Answer: Its IC50 is 49.4 µM.

Question: And the IC50 (HeLa)?
Answer: The IC50 was 45 µM.

Question: What about the IC50 (B16) of the same molecule?
Answer: Its IC50 is 47.2 µM.

Question: And the IC50 (A549)?
Answer: The IC50 was 32.6 µM.

Question: How did the IC50 (MCF7) turn out when C=C1CC[C@@H](C(C)C)[C@]12CC=C(c1cn(CC(=O)Nc3ccc(C)cc3)nn1)CC2 was run?
Answer: Its IC50 is 142 µM.

Question: And the IC50 (HEK293)?
Answer: The IC50 was 303 µM.

Question: What about the IC50 (DU-145) of the same molecule?
Answer: Its IC50 is 44.5 µM.

Question: And the IC50 (HeLa)?
Answer: The IC50 was 54.1 µM.

Question: What about the IC50 (B16) of the same molecule?
Answer: The IC50 was 195 µM.

Question: And the IC50 (A549)?
Answer: Its IC50 is 31.7 µM.

Question: Which IC50 (MCF7) does the source give for C=C1CC[C@@H](C(C)C)[C@]12CC=C(c1cn(-c3cc(OC)c(OC)cc3OC)nn1)CC2 here?
Answer: The IC50 was 44 µM.

Question: And the IC50 (HEK293)?
Answer: Its IC50 is 509 µM.

Question: And the IC50 (DU-145)?
Answer: Its IC50 is 29.7 µM.

Question: What about the IC50 (HeLa) of the same molecule?
Answer: Its IC50 is 37.4 µM.

Question: What about the IC50 (B16) of the same molecule?
Answer: Its IC50 is 29.1 µM.

Question: And the IC50 (A549)?
Answer: Its IC50 is 20.5 µM.

Question: For C=C1CC[C@@H](C(C)C)[C@]12CC=C(c1cn(-c3ccc(OC)cc3)nn1)CC2, which IC50 (MCF7) is on record?
Answer: The IC50 was 63.1 µM.

Question: What about the IC50 (HEK293) of the same molecule?
Answer: The IC50 was 388 µM.

Question: What about the IC50 (DU-145) of the same molecule?
Answer: The IC50 was 65.1 µM.

Question: And the IC50 (HeLa)?
Answer: The IC50 was 54.9 µM.

Question: What about the IC50 (B16) of the same molecule?
Answer: The IC50 was 107 µM.

Question: What about the IC50 (A549) of the same molecule?
Answer: The IC50 was 43.6 µM.

Question: COc1cccc2c1C(=O)c1c(O)c3c(c(O)c1C2=O)C[C@@](O)(C(=O)CO)C[C@@H]3O[C@H]1C[C@H](N)[C@H](O)[C@H](C)O1 [DOXORUBICIN] was tested. Which IC50 (MCF7) did it give?
Answer: The IC50 was 2.24 µM.

Question: What about the IC50 (DU-145) of the same molecule?
Answer: The IC50 was 5.3 µM.

Question: What about the IC50 (HeLa) of the same molecule?
Answer: Its IC50 is 3.57 µM.

Question: What about the IC50 (B16) of the same molecule?
Answer: The IC50 was 2.78 µM.
